Test results: patent US10472347B2, “Aminopyrazine compounds with A2A antagonist properties” (Merck Sharp & Dohme Corp., priority 2014, dated 2019)
pKi: −log10 of the molar value.

Target: T1, human A2a receptor (Homo sapiens, UniProt P29274)
T1 construct: purchased Perkin-Elmer RBHA2AM400UA; host or cells: HEK293 cells (membranes)
Test: A2a competition binding assay, Scintillation Proximity technology
Conditions: membranes from HEK293 cells expressing human A2a receptor; Ki by Cheng-Prusoff equation
Summary of the method: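 Membranes from HEK293 cells expressing human A2a, adenosine deaminase-treated, incubated 1 h at room temperature with compound (3000 to 0.15 nM) and 0.5 nM tritiated pyrazolotriazolopyrimidine radioligand on WGA SPA beads in Ca/Mg-free PBS + 10 mM MgCl2. Non-specific binding with 1 μM CGS15943; Ki by Cheng-Prusoff.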

T1 sequence (P29274 whole entry): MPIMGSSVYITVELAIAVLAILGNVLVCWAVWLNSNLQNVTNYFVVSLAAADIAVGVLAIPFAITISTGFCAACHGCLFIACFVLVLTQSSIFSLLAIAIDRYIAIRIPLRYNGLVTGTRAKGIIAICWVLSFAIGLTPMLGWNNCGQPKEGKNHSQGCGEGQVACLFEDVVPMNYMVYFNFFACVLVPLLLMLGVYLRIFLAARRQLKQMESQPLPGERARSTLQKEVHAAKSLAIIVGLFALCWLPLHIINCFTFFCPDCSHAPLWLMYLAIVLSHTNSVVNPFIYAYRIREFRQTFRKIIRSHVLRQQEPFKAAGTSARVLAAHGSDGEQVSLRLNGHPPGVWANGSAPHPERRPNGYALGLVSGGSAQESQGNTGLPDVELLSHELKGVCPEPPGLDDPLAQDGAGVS

Question: `Cc1nc(C(=O)NCc2nccc(F)c2C2CC2)c(N)nc1-c1ncco1` [Ex-180, 3-amino-N-[(3-cyclopropyl-4-fluoropyridin-2-yl)methyl]-6-methyl-5-(1,3-oxazol-2-yl)pyrazine-2-carboxamide] was tested. Which pKi did it give?
Answer: Its pKi is 9.78.

Question: `Cc1nc(C(=O)NCc2cccc3c2ncn3CC(F)(F)F)c(N)nc1-c1ncco1` [Ex-181, 3-amino-6-methyl-5-(1,3-oxazol-2-yl)-N-{[1-(2,2,2-trifluoroethyl)-1H-benzimidazol-4-yl]methyl}pyrazine-2-carboxamide] was tested. Which pKi did it give?
Answer: The pKi was 8.89.

Question: With `Cc1nc(C(=O)NCc2ncc(C(F)(F)F)cc2C2CC2)c(N)nc1-c1ncco1` [Ex-182, 3-amino-N-{[3-cyclopropyl-5-(trifluoromethyl)pyridin-2-yl]methyl}-6-methyl-5-(1,3-oxazol-2-yl)pyrazine-2-carboxamide] as the compound, how does the pKi read?
Answer: Its pKi is 8.57.

Question: With `Cc1cc(C(F)(F)F)cnc1CNC(=O)c1nc(C)c(-c2ncco2)nc1N` [Ex-183, 3-amino-6-methyl-N-{[3-methyl-5-(trifluoromethyl)pyridin-2-yl]methyl}-5-(1,3-oxazol-2-yl)pyrazine-2-carboxamide] as the compound, how does the pKi read?
Answer: The pKi was 8.17.

Question: With `Cc1nc(C(=O)NCc2nccnc2C2CC2)c(N)nc1-c1ncco1` [Ex-184, 3-amino-N-[(3-cyclopropyl-pyrazin-2-yl)methyl]-6-methyl-5-(1,3-oxazol-2-yl)pyrazine-2-carboxamide] as the compound, how does the pKi read?
Answer: Its pKi is 9.68.

Question: `Cc1cnc(CNC(=O)c2nc(C)c(-c3ncco3)nc2N)nc1` [Ex-185, 3-amino-6-methyl-N-[(5-methylpyrimidin-2-yl)methyl]-5-(1,3-oxazol-2-yl)pyrazine-2-carboxamide] was tested. Which pKi did it give?
Answer: Its pKi is 8.37.

Question: `COc1cccc(F)c1CNC(=O)c1nc(C)c(-c2ncco2)nc1N` [Ex-186, 3-amino-N-(2-fluoro-6-methoxybenzyl)-6-methyl-5-(1,3-oxazol-2-yl)pyrazine-2-carboxamide] was tested. Which pKi did it give?
Answer: Its pKi is 9.74.

Question: How did the pKi turn out when `CCc1nccnc1CNC(=O)c1nc(C)c(-c2ncco2)nc1N` [Ex-187, 3-amino-N-[(3-ethylpyrazin-2-yl)methyl]-6-methyl-5-(1,3-oxazol-2-yl)pyrazine-2-carboxamide] was run?
Answer: The pKi was 9.35.

Question: `Cc1nc(C(=O)NCc2ncnn2C(C)C)c(N)nc1-c1ncco1` [Ex-188, 3-amino-6-methyl-N-{[1-(1-methylethyl)-1H-1,2,4-triazol-5-yl]methyl}-5-(1,3-oxazol-2-yl)pyrazine-2-carboxamide] was tested. Which pKi did it give?
Answer: The pKi was 9.54.

Question: How did the pKi turn out when `Cc1nc(C(=O)NCc2cccc3c2ncn3C(C)C)c(N)nc1-c1ncco1` [Ex-189] was run?
Answer: The pKi was 8.99.

Question: How did the pKi turn out when `Cc1nc2c(o1)CN(CCNC(=O)c1nc(C)c(-c3ncco3)nc1N)CC2` [Ex-190, 3-amino-6-methyl-N-[2-(2-methyl-6,7-dihydro[1,3]oxazolo[5,4-c]pyridin-5-(4H)-yl)ethyl]-5-(1,3-oxazol-2-yl)pyrazine-2-carboxamide] was run?
Answer: The pKi was 7.91.

Question: How did the pKi turn out when `CCn1cnc2c(CNC(=O)c3nc(C)c(-c4ncco4)nc3N)cccc21` [Ex-193, 3-amino-N-[(1-ethyl-1H-benimidazol-4-yl)methyl]-6-methyl-5-(1,3-oxazol-2-yl)pyrazine-2-carboxamide] was run?
Answer: The pKi was 9.36.

Question: `Cc1nc(C(=O)NCc2nn(C)cc2C(F)F)c(N)nc1-c1ncco1` [Ex-194, 3-amino-N-{[4-(difluoromethyl)-1-methyl-1H-pyrazol-3-yl]methyl}-6-methyl-5-(1,3-oxazol-2-yl)pyrazine-2-carboxamide] was tested. Which pKi did it give?
Answer: Its pKi is 8.78.

Question: With `Cc1nccnc1CNC(=O)c1nc(C)c(-c2ncco2)nc1N` [Ex-195, 3-amino-6-methyl-N-[(3-methylpyrazin-2-yl)methyl]-5-(1,3-oxazol-2-yl)pyrazine-2-carboxamide] as the compound, how does the pKi read?
Answer: The pKi was 8.77.

Question: With `CCc1cc(C(F)(F)F)cnc1CNC(=O)c1nc(C)c(-c2ncco2)nc1N` [Ex-196, 3-amino-N-{[3-ethyl-5-(trifluoromethyl)pyridin-2-yl]methyl}-6-methyl-5-(1,3-oxazol-2-yl)pyrazine-2-carboxamide] as the compound, how does the pKi read?
Answer: Its pKi is 8.60.

Question: How did the pKi turn out when `Cc1nc(C(=O)NCc2ncc(C3CC3)cn2)c(N)nc1-c1ncco1` [Ex-197, 3-amino-N-[(5-cyclopropylpyrimidin-2-yl)methyl]-6-methyl-5-(1,3-oxazol-2-yl)pyrazine-2-carboxamide] was run?
Answer: The pKi was 8.20.

Question: With `Cc1nc(C(=O)NCc2nccc3ncn(C)c23)c(N)nc1-c1ncco1` [Ex-198, 3-amino-6-methyl-N-[(3-methyl-3H-imidazo[4,5-c]pyridin-4-yl)methyl]-5-(1,3-oxazol-2-yl)pyrazine-2-carboxamide] as the compound, how does the pKi read?
Answer: Its pKi is 8.06.

Question: How did the pKi turn out when `CCc1cnc(CNC(=O)c2nc(C)c(-c3ncco3)nc2N)nc1` [Ex-199, 3-amino-N-[(5-ethylpyrimidin-2-yl)methyl]-6-methyl-5-(1,3-oxazol-2-yl)pyrazine-2-carboxamide] was run?
Answer: The pKi was 8.03.

Question: With `Cc1nc(C(=O)N[C@H]2CCc3cc(F)ccc32)c(N)nc1-c1ncco1` [Ex-200, 3-amino-N-[(1S)-5-fluoro-2,3-dihydro-1H-inden-1-yl]-6-methyl-5-(1,3-oxazol-2-yl)pyrazine-2-carboxamide] as the compound, how does the pKi read?
Answer: The pKi was 7.83.

Question: With `Cc1nc(C(=O)N[C@H]2CCc3ccc(F)cc32)c(N)nc1-c1ncco1` [Ex-201, 3-amino-N-[(1S)-6-fluoro-2,3-dihydro-1H-inden-1-yl]-6-methyl-5-(1,3-oxazol-2-yl)pyrazine-2-carboxamide] as the compound, how does the pKi read?
Answer: Its pKi is 9.20.

Question: How did the pKi turn out when `Cc1nc(C(=O)N[C@@H]2CCC[C@H]2O)c(N)nc1-c1ncco1` [Ex-202, 3-amino-N-[(1R,2R)-2-hydroxycyclopentyl]-6-methyl-5-(1,3-oxazol-2-yl)pyrazine-2-carboxamide] was run?
Answer: The pKi was 8.65.

Question: With `Cc1nc(C(=O)N[C@H]2CCC[C@H]2F)c(N)nc1-c1ncco1` [Ex-203, 3-amino-N-[(1S,2R)-2-fluorocyclopentyl]-6-methyl-5-(1,3-oxazol-2-yl)pyrazine-2-carboxamide] as the compound, how does the pKi read?
Answer: The pKi was 8.46.

Question: How did the pKi turn out when `Cc1nc(C(=O)N[C@@H]2CCC[C@H]2N(C)C)c(N)nc1-c1ncco1` [Ex-204, 3-amino-N-[(1R,2R)-2-(dimethylamino)cyclopentyl]-6-methyl-5-(1,3-oxazol-2-yl)pyrazine-2-carboxamide] was run?
Answer: The pKi was 5.82.

Question: With `Cc1nc(C(=O)N(C)[C@@H]2CCC[C@H]2O)c(N)nc1-c1ncco1` [Ex-205, 3-amino-N-[(1R,2R)-2-hydroxycyclopentyl]-N,6-dimethyl-5-(1,3-oxazol-2-yl)pyrazine-2-carboxamide] as the compound, how does the pKi read?
Answer: The pKi was 6.41.

Question: How did the pKi turn out when `Cc1nc(C(=O)N[C@@H]2CCC[C@H]2F)c(N)nc1-c1ncco1` [Ex-206, 3-amino-N-[(1R,2R)-2-fluorocyclopentyl]-6-methyl-5-(1,3-oxazol-2-yl)pyrazine-2-carboxamide] was run?
Answer: Its pKi is 8.43.

Question: How did the pKi turn out when `Cc1nc(C(=O)N[C@H]2[C@H](C)CC[C@H]2O)c(N)nc1-c1ncco1` [Ex-207, 3-amino-N-[(1S,2R,5R)-2-hydroxy-5-methylcyclopentyl]-6-methyl-5-(1,3-oxazol-2-yl)pyrazine-2-carboxamide] was run?
Answer: The pKi was 8.53.

Question: How did the pKi turn out when `C#CC[C@H]1CCC[C@H]1NC(=O)c1nc(C)c(-c2ncco2)nc1N` [Ex-208, 3-amino-6-methyl-5-(1,3-oxazol-2-yl)-N-[(1R,2R)-2-prop-2-yl-1-ylcyclopentyl]pyrazine-2-carboxamide] was run?
Answer: The pKi was 9.01.

Question: `C#C[C@H]1CCC[C@@H]1NC(=O)c1nc(C)c(-c2ncco2)nc1N` [Ex-209, 3-amino-N-[(1S,2R)-2-ethynylcyclopentyl]-6-methyl-5-(1,3-oxazol-2-yl)pyrazine-2-carboxamide] was tested. Which pKi did it give?
Answer: Its pKi is 8.53.

Question: How did the pKi turn out when `Cc1nc(C(=O)NC2CCCC2F)c(N)nc1-c1ncco1` (stereo not shown) [Ex-210, 3-amino-N-(2-fluorocyclopentyl)-6-methyl-5-(1,3-oxazol-2-yl)pyrazine-2-carboxamide] was run?
Answer: Its pKi is 8.85.

Question: How did the pKi turn out when `Cc1nc(C(=O)N[C@H]2CCC[C@@H]2O)c(N)nc1-c1ncco1` [Ex-211, 3-amino-N-[(1S,2S)-2-hydroxycyclopentyl]-6-methyl-5-(1,3-oxazol-2-yl)pyrazine-2-carboxamide] was run?
Answer: The pKi was 8.13.

Question: With `Cc1nc(C(=O)N[C@@H]2CCC[C@@H]2O)c(N)nc1-c1ncco1` [Ex-212, 3-amino-N-[(1R,2S)-2-hydroxycyclopentyl]-6-methyl-5-(1,3-oxazol-2-yl)pyrazine-2-carboxamide] as the compound, how does the pKi read?
Answer: The pKi was 7.00.

Question: How did the pKi turn out when `Cc1nc(C(=O)N[C@@H]2C[C@H]3CC[C@@H]2C3)c(N)nc1-c1ncco1` [Ex-213, 3-amino-N-[(1R,2R,4S)-bicyclo[2.2.1]hept-2-yl]-6-methyl-5-(1,3-oxazol-2-yl)pyrazine-2-carboxamide] was run?
Answer: Its pKi is 9.38.

Question: `Cc1nc(C(=O)NCc2nccc3c2ccn3C)c(N)nc1-c1ncco1` [Ex-214] was tested. Which pKi did it give?
Answer: Its pKi is 9.16.

Question: How did the pKi turn out when `Cc1nc(C(=O)NCc2nccnc2C(F)(F)F)c(N)nc1-c1ncco1` [Ex-215, 3-amino-6-methyl-5-(1,3-oxazol-2-yl)-N-{[3-(trifluoromethyl)pyrazin-2-yl]methyl}pyrazine-2-carboxamide] was run?
Answer: The pKi was 8.84.

Question: With `CCn1cc2cccc(CNC(=O)c3nc(C)c(-c4ncco4)nc3N)c2n1` [Ex-216, 3-amino-N-[(2-ethyl-2H-indazol-7-yl)methyl]-6-methyl-5-(1,3-oxazol-2-yl)pyrazine-2-carboxamide] as the compound, how does the pKi read?
Answer: Its pKi is 9.91.

Question: How did the pKi turn out when `Cc1nc(C(=O)NCc2cccc3c2ccn3CC(F)F)c(N)nc1-c1ncco1` [Ex-217, 3-amino-N-{[1-(2,2-difluoroethyl)-1H-indol-4-yl]methyl}-6-methyl-5-(1,3-oxazol-2-yl)pyrazine-2-carboxamide] was run?
Answer: The pKi was 8.85.

Question: How did the pKi turn out when `Cc1nc(C(=O)NCc2cccc3c2ncn3C)c(N)nc1-c1ncco1` [Ex-218, 3-amino-6-methyl-N-[(1-methyl-1H-benzimidazol-4-yl)methyl]-5-(1,3-oxazol-2-yl)pyrazine-2-carboxamide] was run?
Answer: Its pKi is 9.51.

Question: `Cc1nc(C(=O)NCc2cccc3ncn(C)c23)c(N)nc1-c1ncco1` [Ex-219, 3-amino-6-methyl-N-[(1-methyl-1H-benzimidazol-7-yl)methyl]-5-(1,3-oxazol-2-yl)pyrazine-2-carboxamide] was tested. Which pKi did it give?
Answer: The pKi was 7.44.

Question: With `Cc1nc(C(=O)N[C@H]2CCc3cc(Cl)ccc32)c(N)nc1-c1ncco1` [Ex-222] as the compound, how does the pKi read?
Answer: The pKi was 8.04.

Question: How did the pKi turn out when `Cc1nc(C(=O)NC2CC(O)c3cccnc32)c(N)nc1-c1ncco1` (stereo not shown) [Ex-223, 3-amino-N-(5-hydroxy-6,7-dihydro-5H-cyclopenta[b]pyridin-7-yl)-6-methyl-5-(1,3-oxazol-2-yl)pyrazine-2-carboxamide] was run?
Answer: Its pKi is 8.53.
